# Measurements from ChEMBL document CHEMBL3745666, “Syntheses and anti-inflammatory activity of azamollugin derivatives” (Bioorg Med Chem Lett, 2016).
# System: RAW264.7
# Assay: Antiinflammatory activity in mouse RAW264.7 cells assessed as inhibition of LPS-induced NO production compound pretreated for 1 hr followed by addition of 100 ng/ml LPS for 24 hrs by griess method
# Format: functional, cell-based
SMILES,IC50 [µM],inhibition
COC(=O)c1c(O)c2ccccc2c2ncccc12,> 50,
COC(=O)C1=C2C=CC(C)(C)N=C2c2ccccc2C1=O,0.34,Dose-dependent effect
COC(=O)c1c(O)c2ccccc2c2nc(C)ccc12,> 50,
CNC(=N)NCCC[C@H](N)C(=O)O [TILARGININE],73.3,
COC(=O)C1=C2C=CC(C)(C)OC2(O)c2ccccc2C1=O (stereo unspecified),1.3,
